Patent publication US11618743B2, “Herbicidal compounds” (SYNGENTA PARTICIPATIONS AG, priority 2017, dated 2023)

Tests used:
Assay in all cases: Post-emergence efficacy, Method A
Type in all cases: in vivo
[1] = system: Amaranthus palmeri (AMAPA); details: Application rate 500 g/Ha, evaluated after 13 days; for Control of weed species AMAPA after post-emergence application (100=total damage to plant; 0=no damage to plant): Method A; for Control of weed species after post-emergence application, AMAPA: 100=total damage to plant, 0=no damage
Experimental: (§1) Seeds of a variety of test species were sown in standard soil in pots. After cultivation for 14 days (post-emergence) under controlled conditions in a glasshouse (at 24/16° C., day/night; 14 hours light; 65% humidity), the plants were sprayed with an aqueous spray solution derived from the dissolution of the technical active ingredient formula (I) in a small amount of acetone and a special solvent and emulsifier mixture referred to as IF50 (11.12% Emulsogen EL360 TM+44.44% N-methylpyrrolidone+44.44% Dowanol DPM glycol ether), to create a 50 g/l solution which was then diluted to required concentration using 0.25% or 1% Empicol ESC70 (Sodium lauryl ether sulphate)+1% ammonium sulphate as diluent.
(§2) The test plants were then grown in a glasshouse under controlled conditions (at 24/16° C., day/night; 14 hours light; 65% humidity) and watered twice daily. After 13 days the test was evaluated (100=total damage to plant; 0=no damage to plant).
(§3) Ipomoea hederacea (IPOHE), Euphorbia heterophylla (EPHHL), Chenopodium album (CHEAL), Amaranthus palmeri (AMAPA), Lolium perenne (LOLPE), Digitaria sanguinalis (DIGSA), Eleusine indica (ELEIN), Echinochloa crus-galli (ECHCG), Setaria faberi (SETFA)

[2] = system: Chenopodium album (CHEAL); details: Application rate 500 g/Ha, evaluated after 13 days; for Control of weed species CHEAL after post-emergence application (100=total damage to plant; 0=no damage to plant): Method A; for Control of weed species after post-emergence application, CHEAL: 100=total damage to plant, 0=no damage
Experimental: as §1, §2, §3

[3] = system: Digitaria sanguinalis (DIGSA); details: Application rate 500 g/Ha, evaluated after 13 days; for Control of weed species DIGSA after post-emergence application (100=total damage to plant; 0=no damage to plant): Method A; for Control of weed species after post-emergence application, DIGSA: 100=total damage to plant, 0=no damage
Experimental: as §1, §2, §3

[4] = system: Echinochloa crus-galli (ECHCG); details: Application rate 500 g/Ha, evaluated after 13 days; for Control of weed species ECHCG after post-emergence application (100=total damage to plant; 0=no damage to plant): Method A; for Control of weed species after post-emergence application, ECHCG: 100=total damage to plant, 0=no damage
Experimental: as §1, §2, §3

Eleusine indica (ELEIN) = details: Application rate 500 g/Ha, evaluated after 13 days; for Control of weed species ELEIN after post-emergence application (100=total damage to plant; 0=no damage to plant): Method A; for Control of weed species after post-emergence application, ELEIN: 100=total damage to plant, 0=no damage
Experimental: as §1, §2, §3

[5] = system: Euphorbia heterophylla (EPHHL); details: Application rate 500 g/Ha, evaluated after 13 days; for Control of weed species EPHHL after post-emergence application (100=total damage to plant; 0=no damage to plant): Method A; for Control of weed species after post-emergence application, EPHHL: 100=total damage to plant, 0=no damage
Experimental: as §1, §2, §3

Setaria faberi (SETFA) = details: Application rate 500 g/Ha, evaluated after 13 days; for Control of weed species SETFA after post-emergence application (100=total damage to plant; 0=no damage to plant): Method A; for Control of weed species after post-emergence application, SETFA: 100=total damage to plant, 0=no damage
Experimental: as §1, §2, §3

Structure (SMILES)	Control of weed species AMAPA after post-emergence application (100=total damage to plant; 0=no damage to plant) [1]	Control of weed species CHEAL after post-emergence application (100=total damage to plant; 0=no damage to plant) [2]	Control of weed species DIGSA after post-emergence application (100=total damage to plant; 0=no damage to plant) [3]	Control of weed species ECHCG after post-emergence application (100=total damage to plant; 0=no damage to plant) [4]	Control of weed species ELEIN after post-emergence application (100=total damage to plant; 0=no damage to plant) (Eleusine indica (ELEIN))	Control of weed species EPHHL after post-emergence application (100=total damage to plant; 0=no damage to plant) [5]	Control of weed species SETFA after post-emergence application (100=total damage to plant; 0=no damage to plant) (Setaria faberi (SETFA))	Control of weed species after post-emergence application, AMAPA [1]	Control of weed species after post-emergence application, CHEAL [2]	Control of weed species after post-emergence application, DIGSA [3]	Control of weed species after post-emergence application, ECHCG [4]	Control of weed species after post-emergence application, ELEIN (Eleusine indica (ELEIN))	Control of weed species after post-emergence application, EPHHL [5]	Control of weed species after post-emergence application, SETFA (Setaria faberi (SETFA))
O=C(O)CC[n+]1ccc(-c2cc(C(F)(F)F)ncn2)cn1.O=C([O-])C(F)(F)F [Compound A119]	100	100	40	30	30	70	40							
O=C(O)CC[n+]1ccc(-c2cncc(C(F)(F)F)n2)cn1.O=C([O-])C(F)(F)F [Compound A120]	90	70	40	40	30	50	40							
O=C(O)CC[n+]1ccc(-c2cnc(C(F)(F)F)cn2)cn1.O=C([O-])C(F)(F)F [Compound A121]	100	80	40	40	20	80	30							
O=C(O)CC[n+]1ccc(-c2ccc(C(F)(F)F)nn2)cn1.O=C([O-])C(F)(F)F [Compound A126]	100	80	80	80	90	100	100							
O=C(O)CC[n+]1ccc(-c2ncccc2C(F)(F)F)cn1.O=C([O-])C(F)(F)F [Compound A128]	30	10	30	30	50	0	30							
O=C(O)CC[n+]1ccc(-c2ncc(C(F)(F)F)cn2)cn1.O=C([O-])C(F)(F)F [Compound A129]	70	50	60	90	40	70	60							
Cc1n[n+](CCC(=O)O)ccc1-c1ncccn1.O=C([O-])C(F)(F)F [Compound A132]	90	30	90	70	90	30	100							
Cc1n[n+](CCC(=O)O)ccc1-c1ncccn1.[Cl-] [Compound A133]	60	40	70	70	90	20	90							
COC(=O)CC[n+]1ccc(-c2cccnn2)cn1.O=C([O-])C(F)(F)F [Compound A139]	80	100	100	100	100	90	100							
O=C(O)CC[n+]1ccc(-c2ncc(F)cc2F)cn1.O=C([O-])C(F)(F)F [Compound A144]	20	10	30	20	20	20	20							
Cc1n[n+](CCC(=O)O)ccc1-c1ccccn1.O=C([O-])C(F)(F)F [Compound A145]	10	10	10	0	0	10	0							
O=C(O)CC[n+]1ccc(-c2ccccn2)cn1.O=C([O-])C(F)(F)F [Compound A148]	100	40	50	50	40	60	50							
O=C(O)CC[n+]1ccc(-c2ncccc2Cl)cn1.O=C([O-])C(F)(F)F [Compound A149]	30	40	50	50	60	30	40							
Cc1c[n+](CCC(=O)O)ncc1-c1ncccn1.O=C([O-])C(F)(F)F [Compound A153]								90	60	20	40	20	40	20
O=C(O)CC[n+]1ccc(-c2ccncc2F)cn1.O=C([O-])C(F)(F)F [Compound A157]								100	100	70	80	90	80	80
